Results published in ChEMBL document CHEMBL5528040, “Design and Synthesis of Novel 3-Nitro-1H-1,2,4-triazole-1,2,3-triazole-1,4-disubstituted Analogs as Promising Antitrypanosomatid Agents: Evaluation of In Vitro Activity against Chagas Disease and Leishmaniasis” (J Med Chem, 2024).

Experiment: Mutagenicity in Salmonella typhimurium TA98 assessed as mutagenic index ratio at 1500 ug per plate incubated for 90 mins by AMES test
Type: toxicity, Salmonella enterica subsp. enterica serovar Typhimurium
Conditions: in vivo, 1.5 h, dose 1500 µg

Compound O=[N+]([O-])c1ncn(Cc2cn(-c3ccc(OC(F)(F)F)cc3)nn2)n1 has a Ratio of 0.8.
